Test results taken from patent US5242937A, “Topically active ocular thiadiazole sulfonamide carbonic anhydrase inhibitors” (Research Corporation Technologies, Inc., priority 1990, dated 1993).
In brackets after ≈: the same amount, converted by molar mass.

Experiments:
[1] = tested on: intraocular pressure (IOP); experiment: Ocular hypotensive effects following topical administration (Table 2); format: in vivo, New Zealand white rabbits; conditions: IOP lowering; for Maximum Topical Effect: one eye, contralateral eye vehicle
Experimental: B.2 Ocular Hypotensive Effects Following Topical Administration
IOP was determined using rabbits familiarized with the Alcon pneumotonometric measurement employed. Drugs were dissolved or suspended in 0.9% saline or a 1% hydroxypropylmethyl-cellulose gel and instilled into one eye. The contralateral eye received the vehicle only, thereby serving as a control. Initial screening was accomplished using measurements every 15-30 minutes for 5-6 hours. Statistical analysis wa then performed using Student's t-test for paired data (two-tailed).

[2] = Corneal permeability rate constant (kin) across freshly excised bovine corneas in vitro; accession rate; format: in vitro ADME; conditions: for kin (corneal permeability rate constant): excised bovine corneas, in vitro
Experimental: (§1) In these examples the general methodology for testing these compounds is as follows. Melting point (M.P.) is assessed using a standard Fisher-Johns apparatus. Quantitative analysis of drug concentrations is carried out using either an enzymatic assay or by high performance liquid chromatography (HPLC). The enzymatic assay is a modification of Maren's micromethod, J. Pharmacol. Exp. Ther., 130:26-29, 1960. Essentially, a reaction volume of 0.8 mL, containing a carbonate/bicarbonate buffer, phenol red, purified carbonic anhydrase, and inhibitor is maintained at 0° degrees and saturation with CO2 by constant bubbling. The time required for acidification to a color change endpoint is monitored as the dependent variable. Carbonic anhydrase inhibitors increase reaction time in proportion to their concentrations over a useful range. The HPLC analysis is performed using reverse phase chromatography (C18) and gradient elution. At a flow rate of 2mL/min, initial mobile phase composition is 95% A, 5% B, where A is 50 mM phosphate buffer, pH=2, and B is CH3 OH. This composition is altered in a linear fashion over 12 minutes to a final composition of 5:95, A:B, v:v. Capacity factor (k') is determined using the relationship k'=([…] -Vo)/Vo where Ve is the elution volume of the analyte of interest and Vo is the void volume of the column. HPLC analysis using photodiode array UV-visible detection (400-200 nm) is also used to assess purity and acquire spectral information.
(§2) Corneal permeability rate constants (kin) are determined in an in vitro system. Freshly excised bovine corneas are placed on 8 mm tissue culture wells (epithelial surface down) filled with tissue culture medium containing test compound. The well formed by the curvature of the cornea is filled with drug-free medium. Samples of medium are taken from the endothelial side for determination of drug concentrations. The rate constant for drug appearance is kin. Enzyme inhibition is assessed by determination of KI versus carbonic anhydrase II using the enzymatic method. Accession rate is the product of kin and maximum buffer solubility. This is a useful estimate of delivery rate of drug to the anterior chamber of the eye following topical administration.

[3] = Solubility in pH=7.4 phosphate buffer (saturated solutions); format: physicochemical; conditions: aqueous buffer
Experimental: as §1
Solubility is determined by preparing saturated solutions of test compounds in pH=7.4 phosphate buffer followed by analysis of the solution for compound concentration.

carbonic anhydrase II = carbonic anhydrase II (Homo sapiens, UniProt P00918); experiment: Enzyme inhibition, KI versus carbonic anhydrase II (enzymatic micromethod); format: biochemical; conditions: 0°
Experimental: as §1, with “Carbonic anhydrase inhibitors increase reaction time in proportion to their concentrations over a useful range.” left out
as §2, with “solubility.” for “solubility. This is a useful estimate of delivery rate of drug to the anterior chamber of the eye following topical administration.”

[4] = Partition coefficients (PC), organic solvent : pH=7.4 phosphate buffer; format: physicochemical; conditions: for PC (CHCl3 : buffer): chloroform : pH=7.4 phosphate buffer; for PC (ether: buffer): diethyl ether : pH=7.4 phosphate buffer
Experimental: as §1
Partition coefficients (PC) are determined by dissolving test compound in pH=7.4 phosphate buffer (saturated with the appropriate organic solvent) or organic solvent (diethyl ether or chloroform) saturated with buffer. Equal volumes of organic and aqueous solutions are added to test tubes which are then capped and mixed by inversion until equilibrium is achieved. The ratio of drug concentration organic: aqueous is the partition coefficient.

[5] = tested on: intraocular pressure (IOP); experiment: Ocular hypotensive effects following systemic administration (Table 1); format: in vivo, New Zealand albino rabbits; conditions: subcutaneous, 225 μmol in corn oil, mean (S.D.)
Experimental: B.1 Ocular Hypotensive Effects Following systemic Administration
Compounds are dissolved in corn oil and injected subcutaneously into New Zealand albino rabbits. […] Injection time is defined as t=0. […] Values shown are IOP in mm Hg represented as the mean (S.D.) of n replications. Data are analyzed using Student's t-test for unpaired data. For time points marked with asterisks, p<0.05, which is taken to indicate a difference from vehicle treated controls.

[6] = oral administration; cited from earlier work
[7] = topical CAI, IOP lowering; cited from earlier work

Row | SMILES | accession rate [2] [µM/h] | kin (corneal permeability rate constant) [2] [h⁻¹] | solubility [3] [mM] | Ki (carbonic anhydrase II) [nM] | PC (CHCl3 : buffer) [4] | Duration [1] [h] | Time to Peak effect [1] [min] | Maximum Topical Effect [1] | also measured
1 | CCOC(=O)CCCCC(=O)Nc1nnc(S(N)(=O)=O)s1 [Compound 8, ethyladipoylazolamide] | – | – | – | – | – | 2 | 30 | approx. -1.0 mm Hg | –
2 | CCOC(=O)CCC(=O)Nc1nnc(S(N)(=O)=O)s1 [Example 6, Ethylsuccinylazolamide] | 91 | 0.0155 | 5.8 (≈ 1790 µg/mL) | – | 1.24 | – | – | – | PC (ether: buffer) [4]: 0.35; IOP ([5]; t=0 min): 18.3(1.0) mm Hg; IOP ([5]; t=20 min): 17.5(2.0) mm Hg; IOP ([5]; t=45 min, * p<0.05 vs vehicle): 15.4(2.1) mm Hg; IOP ([5]; t=60 min, * p<0.05 vs vehicle): 13.7(1.6) mm Hg; IOP ([5]; t=75 min, * p<0.05 vs vehicle): 12.4(1.9) mm Hg; IOP ([5]; t=90 min, * p<0.05 vs vehicle): 15.1(2.0) mm Hg; IOP ([5]; t=110 min, * p<0.05 vs vehicle): 15.0(1.8) mm Hg; IOP ([5]; t=150 min, * p<0.05 vs vehicle): 16.6(1.6) mm Hg
3 | CC(=O)Nc1nnc(S(N)(=O)=O)s1 [acetazolamide, 2-acetylamino-1,3,4-thiadiazole-5-sulfonamide] | – | – | – | – | – | – | – | – | decrease of IOP [6]: shown to decrease IOP following oral administration
4 | Nc1ccc2nc(S(N)(=O)=O)sc2c1 [aminozolamide] | – | – | – | – | – | – | – | – | effectiveness in clinical trial [7]: partially effective in clinical trial

Continued, in another order:

Row | accession rate [2] [µM/h] | kin (corneal permeability rate constant) [2] [h⁻¹] | solubility [3] [mM] | Ki (carbonic anhydrase II) [nM] | PC (CHCl3 : buffer) [4] | SMILES | Duration [1] [h] | Time to Peak effect [1] [min] | Maximum Topical Effect [1] | also measured
5 | 10.8 | 0.0108 | 1 (≈ 260 µg/mL) | 12 | – | NS(=O)(=O)c1nnc(N2C(=O)C=CC2=O)s1 [Example 3, Maleimidiazolamide] | 3 | 60 | -2.0 ± 0.5 mm Hg | –
6 | – | – | 0.5 (≈ 154 µg/mL) | – | – | NS(=O)(=O)c1nnc(NC(=O)CCCCC(=O)O)s1 [Example 8] | – | – | – | –
7 | 309 | – | – | 32 | 0.23 | CCOC(=O)C(=O)Nc1nnc(S(N)(=O)=O)s1 [Example 5, Ethyloxaloylazolamide] | ≥ 5 | 75 | -3.0 ± 0.7 mm Hg | solubility ([3]; unit nm [sic]): 91 mM (≈ 25500 µg/mL); PC (ether: buffer) [4]: 0.3; IOP ([5]; t=0 min): 18.4(1.9) mm Hg; IOP ([5]; t=20 min): 17.5(2.1) mm Hg; IOP ([5]; t=45 min, * p<0.05 vs vehicle): 15.0(2.6) mm Hg; IOP ([5]; t=60 min, * p<0.05 vs vehicle): 14.5(2.2) mm Hg; IOP ([5]; t=75 min, * p<0.05 vs vehicle): 14.6(5.1) mm Hg; IOP ([5]; t=90 min, * p<0.05 vs vehicle): 17.8(1.7) mm Hg; IOP ([5]; t=110 min, * p<0.05 vs vehicle): 17.3(2.2) mm Hg; IOP ([5]; t=150 min, * p<0.05 vs vehicle): 18.3(1.3) mm Hg
8 | 26 | 0.0512 | 0.2 (≈ 67.3 µg/mL) | – | 3.03 | CCOC(=O)CCCCC(=O)Nc1nnc(S(N)(=O)=O)s1 [Example 7] | – | – | – | Ki (carbonic anhydrase II; unit inferred): 60 nM
9 | 21 | 0.0021 | 10 (≈ 2620 µg/mL) | – | – | NS(=O)(=O)c1nnc(N2C(=O)CCC2=O)s1 [Example 2, Succinylimidazolamide] | 2 | 30 | -2.3 ± 1.7 mm Hg | –
10 | ≤ 21 | 3e-05 | > 700 | 8 | – | NS(=O)(=O)c1nnc(N2C(=O)C(O)C(O)C2=O)s1 (stereo not drawn) [Example 4, Dihydroxysuccinimidazolamide] | ≥ 6 | 60 | -4.0 ± 0.7 mm Hg | –
